Data reported in patent publication US5650415A, “Quinoline compounds” (Sugen, Inc., priority 1995, dated 1997).

Target: T1, IGF-1R (Homo sapiens, UniProt P08069)
T1 construct: expressed in transfected cells; host or cells: 3T3/IGF-1R cells (mouse 3T3 host)
Assay: Cellular IGF-1 Receptor ELISA
Type: cell-based
Conditions: 3T3/IGF-1R cells
Experimental: Cellular IGF-1 Receptor ELISA (Version I)
(1). The cell line used in this assay is 3T3/IGF-1R, a cell line which overexpresses IGF-1 Receptor.
(2). 3T3/IGF-1R is grown in an incubator with 5% CO2 at 37° C. The growth media is DMEM+10% FBS (heat inactivated)+2mM L-Glutamine.
(3). For ELISA plate coating, the anti-IGF-1R antibody named 17-69 is used. Antibodies are purified by the Enzymology Lab, SUGEN, Inc.
All the following steps are conducted at room temperature unless it is specifically indicated. All ELISA plate washings are performed by rinsing the plate with tap water three times, followed by one TBST rinse. Pat plate dry with paper towels.
(1). The cells, grown in tissue culture dish (10 cm, Corning 25020-100) to 80-90% confluence, are harvested with Trypsin-EDTA (0.25%, 0.5 ml/D-100, GIBCO).
(2). Resuspend the cells in fresh DMEM+10% FBS+2mM L-Glutamine, and transfer to 96-well tissue culture plate (Corning, 25806-96) at 20,000 cells/well (100 ul/well). Incubate for 1 day then replace medium to serum-free medium (90/ul) and incubate in 5% CO2 and 37° C. overnight.
(1). Coat the ELISA plate (Corning 25805-96) with Anti-IGF-1R Antibody at 0.5 ug/well in 100 ul PBS at least 2 hours.
(2). Remove the coating solution, and replace with 100 ul Blocking Buffer, and shake for 30 minutes. Remove the blocking buffer and wash the plate just before adding lysate.
(1). The drugs are tested in serum-free condition.
(2). Dilute drug stock (in 100% DMSO) 1:10 with DMEM in 96-well poly-propylene plate, and transfer 10 ul/well of this solution to the cells to achieve final drug dilution 1:100, and final DMSO concentration of 1.0%. Incubate the cells in 5% CO2 at 37° C. for 2 hours.
(3). Prepare fresh cell lysis buffer (HNTG HNTG 2 ml EDTA 0.1 ml Na3VO4 0.1 ml Na4P2O7 0.1 ml H20 7.3 ml HNTG* 10 ml.
(4). After drug incubation for two hours, transfer 10 ul/well of 200 nM IGF-1 Ligand in PBS to the cells (Final Conc=20 nM), and incubate at 5% CO2 at 37° C. for 10 minutes.
(5). Remove media and add 100ul/well HNTG* and shake for 10 minutes. Look at cells under microscope to see if they are adequately lysed.
(6). Use a 12-channel pipette to scrape the cells from the plate, and homogenize the lysate by repeat aspiration and dispense. Transfer all the lysate to the antibody coated ELISA plate [V.2.(2)], and shake for 1 hour.
(7). Remove the lysate, wash the plate, transfer anti-pTyr (1:3,000 with TBST) 100 ul/well, and shake for 30 minutes.
(7). Remove anti-pTyr, wash the plate, transfer detection antibody (1:3,000 with TBST) 100 ul/well, and shake for 30 minutes.
(8). Remove detection antibody, wash the plate, and transfer fresh ABTS/H2O2 (1.2 ul H2O2 to 10 ml ABTS) 100 ul/well to the plate to start color development.
(9). Measure OD (410 nm) in Dynatec MR5000, which is connected to Ingres.

T1 sequence (P08069 31-1367): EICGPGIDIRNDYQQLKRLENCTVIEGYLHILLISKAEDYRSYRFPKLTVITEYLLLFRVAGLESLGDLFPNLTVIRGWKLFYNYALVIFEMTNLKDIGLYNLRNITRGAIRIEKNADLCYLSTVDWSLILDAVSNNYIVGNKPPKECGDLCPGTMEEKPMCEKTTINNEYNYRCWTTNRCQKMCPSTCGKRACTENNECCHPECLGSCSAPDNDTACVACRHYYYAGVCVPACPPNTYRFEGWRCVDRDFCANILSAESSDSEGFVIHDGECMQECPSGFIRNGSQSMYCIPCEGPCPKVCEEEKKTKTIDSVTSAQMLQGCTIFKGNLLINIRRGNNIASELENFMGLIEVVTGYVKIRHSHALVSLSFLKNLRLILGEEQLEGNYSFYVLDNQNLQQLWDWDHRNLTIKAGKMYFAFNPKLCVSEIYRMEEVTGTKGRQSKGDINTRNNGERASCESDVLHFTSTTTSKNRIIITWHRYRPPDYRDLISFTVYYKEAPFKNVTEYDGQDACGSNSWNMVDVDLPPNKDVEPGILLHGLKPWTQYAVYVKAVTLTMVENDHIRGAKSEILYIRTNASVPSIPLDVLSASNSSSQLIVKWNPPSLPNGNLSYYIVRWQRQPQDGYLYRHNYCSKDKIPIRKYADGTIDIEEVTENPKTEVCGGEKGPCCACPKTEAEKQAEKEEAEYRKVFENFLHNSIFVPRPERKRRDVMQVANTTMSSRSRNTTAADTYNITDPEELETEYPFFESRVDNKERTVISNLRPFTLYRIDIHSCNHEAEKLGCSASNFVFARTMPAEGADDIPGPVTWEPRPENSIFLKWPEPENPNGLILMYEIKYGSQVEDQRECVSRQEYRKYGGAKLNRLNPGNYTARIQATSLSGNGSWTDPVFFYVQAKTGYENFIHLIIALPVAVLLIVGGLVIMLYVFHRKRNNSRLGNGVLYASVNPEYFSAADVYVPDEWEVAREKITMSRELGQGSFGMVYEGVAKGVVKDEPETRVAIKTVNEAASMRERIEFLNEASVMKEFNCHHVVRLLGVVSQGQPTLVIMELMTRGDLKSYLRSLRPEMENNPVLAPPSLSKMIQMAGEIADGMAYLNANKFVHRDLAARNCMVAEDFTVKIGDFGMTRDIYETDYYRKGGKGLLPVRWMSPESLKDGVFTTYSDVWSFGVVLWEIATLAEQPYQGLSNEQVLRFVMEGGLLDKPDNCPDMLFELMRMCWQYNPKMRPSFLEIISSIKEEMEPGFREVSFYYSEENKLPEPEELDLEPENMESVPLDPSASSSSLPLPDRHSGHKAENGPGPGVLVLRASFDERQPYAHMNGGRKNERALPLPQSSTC

Row | Structure (SMILES) | IC50 [µM]
1 | CCOC(=O)c1cnc2ccc(C(F)(F)F)cc2c1Nc1cccc(Br)c1 [Compound A716, 4-(3-Bromophenylamino)-3-ethoxycarbonyl-6-trifluoromethylquinoline] | > 100
2 | CCOC(=O)c1cnc2ccc(C(F)(F)F)cc2c1Nc1cccc(C(F)(F)F)c1 [Compound A721, 3-Ethoxycarbonyl-4-(3-trifluoromethylphenylamino)-6-trifluoromethylquinoline] | > 100
3 | CCOC(=O)c1cnc2c(F)cc(F)cc2c1Sc1ccc(Cl)cc1 [Compound A730, 4-(4-Chlorophenylmercapto)-6,8-difluoro-3-ethoxycarbonylquinoline] | > 50
4 | CCOC(=O)c1cnc2ccc(C(F)(F)F)cc2c1Nc1ccc(C#N)cc1 [Compound A725, 4-(4-Cyanophenylamino)-3-ethoxycarbonyl-6-trifluoromethylquinoline] | > 100
5 | CCOC(=O)c1cnc2ccc(C(F)(F)F)cc2c1Nc1ccc(OC)c(OC)c1 [Compound A726, 3-Ethoxycarbonyl-4-(3,4-dimethoxyphenylamino)-6-trifluoromethylquinoline] | > 100
6 | CCOC(=O)c1cnc2ccc(C(F)(F)F)cc2c1Nc1ccc(Br)cc1 [Compound A727, 4-(4-Bromophenylamino)-3-ethoxycarbonyl-6-trifluoromethylquinoline] | > 100
7 | CCOC(=O)c1cnc2ccc(C(F)(F)F)cc2c1Nc1ccccc1C#N [Compound A723, 4-(2-Cyanophenylamino)-3-ethoxycarbonyl-6-trifluoromethylquinoline] | > 100
8 | CCOC(=O)c1cnc2ccc(C(F)(F)F)cc2c1Nc1ccc(C(F)(F)F)cc1 [Compound A722, 3-Ethoxycarbonyl-4-(4-trifluoromethylphenylamino)-6-trifluoromethylquinoline] | > 100

Continued, values first:

Row | IC50 [µM] | Structure (SMILES)
9 | > 100 | CCOC(=O)c1cnc2ccc(C(F)(F)F)cc2c1Nc1cccc(Cl)c1 [Compound A728, 4-(3-Chlorophenylamino)-3-ethoxycarbonyl-6-trifluoromethylquinoline]
10 | > 100 | CCOC(=O)c1cnc2ccc(C(F)(F)F)cc2c1NCc1cccc(C(F)(F)F)c1 [Compound A718, 3-Ethoxycarbonyl-4-(3-trifluoromethylbenzylamino)-6-trifluoromethylquinoline]
11 | > 100 | CCOC(=O)c1cnc2ccc(C(F)(F)F)cc2c1NCc1ccccc1C(F)(F)F [Compound A717, 3-Ethoxycarbonyl-4-(2-trifluoromethylbenzylamino)-6-trifluoromethylquinoline]
12 | > 100 | CCOC(=O)c1cnc2ccc(C(F)(F)F)cc2c1Nc1ccccc1C(F)(F)F [Compound A720, 3-Ethoxycarbonyl-4-(2-trifluoromethylphenylamino)-6-trifluoromethylquinoline]
13 | > 100 | CCOC(=O)c1cnc2c(F)ccc(F)c2c1Sc1cccc(C(F)(F)F)c1 [Compound A713, 3-Ethoxycarbonyl-5,8-difluoro-4-(3-trifluoromethylphenylmercapto)quinoline]
14 | > 50 | CCOC(=O)c1cnc2cc(Cl)c(F)cc2c1Sc1ccc(Cl)cc1 [Compound A731, 7-Chloro-4-(4-chlorophenylmercapto)-6-fluoro-3-ethoxycarbonylquinoline]
15 | > 100 | CCOC(=O)c1cnc2ccc(C(F)(F)F)cc2c1NCc1ccc(C(F)(F)F)cc1 [Compound A719, 3-Ethoxycarbonyl-4-(4-trifluoromethylbenzylamino)-6-trifluoromethylquinoline]
16 | > 100 | CCOC(=O)c1cnc2c(F)ccc(F)c2c1Sc1ccc(Cl)cc1 [Compound A732, 4-(4-Chlorophenylmercapto)-5,8-difluoro-3-ethoxycarbonylquinoline]
17 | > 100 | CCOC(=O)c1cnc2ccc(C(F)(F)F)cc2c1Nc1ccc(Cl)cc1 [Compound A729, 4-(4-Chlorophenylamino)-3-ethoxycarbonyl-6-trifluoromethylquinoline]
